Results: patent US20140093960A1, “CELL DIFFERENTIATION INDUCER AND DIFFERENTIATION INDUCING METHOD” (The University of Tokushima, priority 2011, published 2014)

Assays:
Assay type in all cases: cell-based
mouse ES cells (AB2-2) [1] = assay: Induction of differentiation of mouse ES cell, morphology (Example 10); settings: 50 μM, 4 days, hematoxylin staining, optical microscope
Protocol: A culture medium to induce an embryoid bodies used in Example 7 (4 mL) was added to a petri dish having a diameter of 60 mm. Further, 10^6 mouse ES cells (AB2-2) were added thereto, and incubated under 5% CO2 atmosphere at 37° C. for 3 days. The obtained embryoid was added into a […] volume tube. The above petri dish was washed by adding 1 PBS (5 mL), and the PBS was added into the above tube. The half quantity of the obtained cells was transferred to a separate tube, and the tube was stood still at room temperature for 5 minutes. After the supernatant was removed, an NP medium (10.5 mL) used in Example 7 was added. The cells were dispersed well, and the mixture was added to each well of a 96 well plate which was coated with collagen in an amount of 100 μL. The cells were incubated under 5% CO2 atmosphere at 37° C. overnight.
In DMSO, 3,4-dihydroxybenzonitrile (manufactured by Tokyo Chemical Industry Co., Ltd.) was dissolved. The solution was added to each well so that the total amount became 200 μL in a final concentration of 12.5 μM, 25 μM or […]. Further, blood serum and bFGF: basic fibroblast growth factor were added to each well respectively in final concentrations of 5% and 10 ng/mL, and the cells were cultured under 5% CO2 atmosphere at 37° C. for 4 days.
After the cultivation, 100 μL of the culture medium was removed from each well. […]

mouse ES cells (AB2-2) [2] = assay: Induction of differentiation of mouse ES cell, change of morphology (Example 7(1)); settings: minimum concentration at which the change of the morphology was observed; embryoid bodies from mouse ES cells, 25 to 100 μM, cultured 4 days, hematoxylin staining
Protocol: The culture medium was added to a petri dish having a diameter of 60 mm. Further, 1 10^6 mouse ES cells (AB2-2) which were obtained from Dr. Alan Bradley in The Wellcome Trust Sanger Institute were added thereto, and incubated under 5% CO2 atmosphere at 37° C. for 1 day. Then, the cells were separated using a glass pipet and added to the same petri dish again, and incubated under 5% CO2 atmosphere at 37° C. for 3 days to form embryoid bodies.
Then, the above cultured cell dispersion (100 μL) was added to 96 well plate which was coated with collagen type 1, and was incubated under 5% CO2 atmosphere at 37° C. overnight. Separately, each examined compound was dissolved in a culture medium which was obtained by removing […] and a leukemia inhibitory factor from an ES culture medium and which was used for inducing a differentiation, and the solutions were added each well so that the final concentrations were 25 to 100 μM. As examined compounds, compounds which were synthesized by similar methods to Examples 1 to 6 in addition to the compounds synthesized in Examples 1 to 6 were used. […] In addition, fetal bovine serum was added at a final concentration of 5% and bFGF: basic fibroblast growth factor was added at a final concentration of 2 ng/mL to each well, and the cells were cultured in an adhesive state under 5% CO2 atmosphere at 37° C. for 4 days.
After the above culture, paraformaldehyde was added to each well at a final concentration of 2% to fix the cells. The cells were stained with hematoxylin, and the change of the morphology thereof was observed using an optical microscope. As control, only dimethylsulfoxide was added at a final concentration of 0.5% without adding the examined compound. […] In addition, the minimum concentrations of each examined compound at which the change of the morphology was observed are summarized in Table 2.

mouse ES cells (AB2-2) [3] = assay: Combinational effect with retinoic acid, cell count (Example 9); settings: 4 days; for number of the nervous system cells: average of four experiments
Protocol: The culture medium was added to a petri dish having a diameter of 60 mm. Further, 1 10^6 mouse ES cells (AB2-2) which were obtained from Dr. Alan Bradley in The Wellcome Trust Sanger Institute were added thereto, and incubated under 5% CO2 atmosphere at 37° C. for 1 day. Then, the cells were separated using a glass pipet and added to the same petri dish again, and incubated under 5% CO2 atmosphere at 37° C. for 3 days to form embryoid bodies. […] Then, the above cultured cell dispersion ([…]) was added to 96 well plate which was coated with collagen type I, and was incubated under 5% CO2 atmosphere at 37° C. overnight. On the next day, the examined compound 5 only or with retinoic acid in combination in each final concentration of 10 nM was added thereto, and the cells were incubated in adhesive state under 5% CO2 atmosphere at 37° C. for 4 days. After the incubation, the cells were washed with PBS, and separated using 0.25% Trypsin. The number of the cells was counted. This experiment was carried out four times, and the average of the counted numbers was obtained. […] In the FIG. 7, “RA” represents retinoic acid.

mouse ES cell = assay: Gene expression analysis by RT-PCR (Example 7(3)); settings: mouse ES cell treated with 80 μM for 5 days
Protocol: Differentiation of a mouse ES cell was induced similarly to the above (1) except that the cell was treated with 80 μM of the examined compound 4 for 5 days. From the obtained cell, total RNA was extracted using TRIzol reagent. Using the total RNA, cDNA was synthesized by an ordinary method. A polymerase chain reaction was carried out using the synthesized cDNA as a template and each primer of Oct3/4▪Nanog—a marker of an undifferentiated cell, Nestin—a marker of a neural stem cell, Sox9▪Sox10▪Slug—a marker of a neural crest cell, GATA2—a marker of a mesoderm, Sca-1—a marker of a stem cell, and c-kit—a marker of a hematopoietic stem cell for analyzing the expression of each marker. In addition, for comparison, the expression was similarly analyzed with respect to an undifferentiated mouse ES cell and an embryoid body obtained by culturing a mouse ES cell for 3 days.

In the case of `N#Cc1ccc(O)c(O)c1` [3,4-dihydroxybenzonitrile], the “change of the cells' morphology” value (mouse ES cells (AB2-2) [1]) is reported as “nervous system cells which had cell processes all around were observed”.

`O=C(O)[C@@H]1CSC(c2cccc(OCc3ccccc3)c2OCc2ccccc2)=N1` [examined compound 2, (R)-2-{2,3-Bis(benzyloxy)phenyl}-4,5-dihydrothiazole-4-carboxylic acid] was tested, and the “Minimum effective concentration for morphology change” value (mouse ES cells (AB2-2) [2]) was 100 μ M.

In the case of `O=C(O)c1csc(-c2cccc(OCc3ccccc3)c2OCc2ccccc2)n1` [examined compound 1, 2-{2,3-Bis(benzyloxy)phenyl}thiazole-4-carboxylic acid], the “Minimum effective concentration for morphology change” value (mouse ES cells (AB2-2) [2]) is reported as 50 μ M.

In the case of `COC(=O)c1cc(O)c(O)c(O)c1` [Example 5, Methyl 3,4,5-trihydroxybenzoate], the “number of the nervous system cells” value (mouse ES cells (AB2-2) [3]; compound only, final concentration 10 nM) is reported as 1.71±0.51 10^6, the “increase of the number of nervous system cells with retinoic acid in combination versus compound only” value (mouse ES cells (AB2-2) [3]; each final concentration 10 nM) is reported as “about 1.89 times” and the “number of the nervous system cells” value (mouse ES cells (AB2-2) [3]; in combination with retinoic acid, each final concentration 10 nM) is reported as 3.23±0.42 10^6.

With “2-(2,3-Dihydroxyphenyl)thiazole-4-carboxylic acid [examined compound 3]” the “Slug expression (marker of a neural crest cell)” value (mouse ES cell) was “remarkably expressed”, the “Sox9 expression (marker of a neural crest cell)” value (mouse ES cell) was “expressed” and the “Sox10 expression (marker of a neural crest cell)” value (mouse ES cell) was “expressed”. It also gave a Minimum inhibitory concentration (mouse ES cells (AB2-2) [2]) of 70 μ M 70 μ M.
